Assay results reported in patent US12552783B2, “Modulators of proteolysis and associated methods of use” (Arvinas Operations, Inc., priority 2018, dated 2026).

Biological target: KRas (Homo sapiens, UniProt P01116, G12C)
Experiment: KRas degradation in NCI-H2030 cells by Western blot, normalized to GAPDH (data of Table 14)
Assay type: cell-based
Design: host or cells: NCI-H2030
Conditions: for Dmax: NCI-H2030; for Percent Degradation at Indicated Concentration (μM): 0.1: 0.1 μM
Summary of the method: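 After a day without serum, the G12C-homozygous cells received each compound at 0.3, 1 and 3 μM, with VHL-based degraders left for 24 h and other compounds for 72 h. DC50 is the concentration giving half-maximal degradation and DMax the maximal degradation, both taken from KRas levels normalized to GAPDH.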

| SMILES | Percent Degradation at Indicated Concentration (μM): 0.3 (H2030 cells, 0.3 μM) | Percent Degradation at Indicated Concentration (μM): 1 (H2030 cells, 1 μM) | Dmax (H2030 cells) | Percent Degradation at Indicated Concentration (μM): 3 (H2030 cells, 3 μM) | other results |
| --- | --- | --- | --- | --- | --- |
| C=CC(=O)N1CCN(c2nc(NCCC(=O)N(C)CCOCCOCCOCCOCCOCC(=O)N[C@H](C(=O)N3C[C@H](O)C[C@H]3C(=O)N[C@@H](C)c3ccc(-c4scnc4C)cc3)C(C)(C)C)nc3c(F)c(-c4c(O)cccc4F)c(Cl)cc23)CC1 [compound 214, (2S,4R)-1-((S)-24-(((R)-4-(4-acryloylpiperazin-1-yl)-6-chloro-8-fluoro-7-(2-fluoro-6-hydroxyphenyl)quinazolin-2-yl)amino)-2-(tert-butyl)-21-methyl-4,22-dioxo-6,9,12,15,18-pentaoxa-3,21-diazatetracosanoyl)-4-hydroxy-N-((S)-1-(4-(4-methylthiazol-5-yl)phenyl)ethyl)pyrrolidine-2-carboxamide] | – | – | – | – | Percent Degradation at Indicated Concentration (μM) (H2030, 0.3 μM): C (Percent Degradation: C ≤ 35); Percent Degradation at Indicated Concentration (μM) (H2030, 1 μM): C (Percent Degradation: C ≤ 35); Percent Degradation at Indicated Concentration (μM) (H2030, 3 μM): C (Percent Degradation: C ≤ 35); Dmax: ≤ 35% |
| C=CC(=O)N1CCN(c2nc(NCCC(=O)N(C)CCOCCOCCOCCOCCNc3cccc4c3C(=O)N(C3CCC(=O)NC3=O)C4=O)nc3c(F)c(-c4cc(O)cc5ccccc45)c(Cl)cc23)CC1 (centres unmarked) [compound 59, 3-((4-(4-acryloylpiperazin-1-yl)-6-chloro-8-fluoro-7-(3-hydroxynaphthalen-1-yl)quinazolin-2-yl)amino)-N-(14-((2-(2,6-dioxopiperidin-3-yl)-1,3-dioxoisoindolin-4-yl)amino)-3,6,9,12-tetraoxatetradecyl)-N-methylpropanamide] | C (C ≤ 35) | C (C ≤ 35) | ≤ 35% | – | Percent Degradation at Indicated Concentration (μM): 0.1 (H2030 cells): C (C ≤ 35) |
| CCC(=O)N1CCN(c2nc(NCCC(=O)N(C)CCOCCOCCOc3cc(-c4scnc4C)ccc3CNC(=O)[C@@H]3C[C@@H](O)CN3C(=O)[C@H](c3cc(C)no3)C(C)C)nc3c(F)c(-c4cc(O)cc5ccccc45)c(Cl)cc23)CC1 [compound 333, (2S,4R)-N-(2-(2-(2-(2-(3-((6-chloro-8-fluoro-7-(3-hydroxynaphthalen-1-yl)-4-(4-propionylpiperazin-1-yl)quinazolin-2-yl)amino)-N-methylpropanamido)ethoxy)ethoxy)ethoxy)-4-(4-methylthiazol-5-yl)benzyl)-4-hydroxy-1-((S)-3-methyl-2-(3-methylisoxazol-5-yl)butanoyl)pyrrolidine-2-carboxamide] | C (C ≤ 35) | C (C ≤ 35) | ≤ 35% | C (C ≤ 35) | – |
| C=CC(=O)N1CCN(c2nc(NCCC(=O)N(C)CCOCCOc3ccc4c(c3)CN(C3CCC(=O)NC3=O)C4=O)nc3c(F)c(-c4cc(O)cc5ccccc45)c(Cl)cc23)CC1 (centres unmarked) [compound 65, 3-((4-(4-acryloylpiperazin-1-yl)-6-chloro-8-fluoro-7-(3-hydroxynaphthalen-1-yl)quinazolin-2-yl)amino)-N-(2-(2-((2-(2,6-dioxopiperidin-3-yl)-1-oxoisoindolin-5-yl)oxy)ethoxy)ethyl)-N-methylpropanamide] | C (C ≤ 35) | C (C ≤ 35) | ≤ 35% | C (C ≤ 35) | – |
| Cc1ncsc1-c1ccc([C@H](C)NC(=O)[C@@H]2C[C@@H](O)CN2C(=O)[C@@H](NC(=O)COCCOCCOCCOCCN(C)C(=O)CCNc2nc(N3CCN(C(=O)C(O)O)CC3)c3cc(Cl)c(-c4c(O)cccc4F)c(F)c3n2)C(C)(C)C)cc1 (atropisomer, axis not shown) [compound 240, (2S,4R)-1-((S)-2-(tert-butyl)-21-(((S)-6-chloro-4-(4-(2,2-dihydroxyacetyl)piperazin-1-yl)-8-fluoro-7-(2-fluoro-6-hydroxyphenyl)quinazolin-2-yl)amino)-18-methyl-4,19-dioxo-6,9,12,15-tetraoxa-3,18-diazahenicosanoyl)-4-hydroxy-N-((S)-1-(4-(4-methylthiazol-5-yl)phenyl)ethyl)pyrrolidine-2-carboxamide] | – | – | – | – | Percent Degradation at Indicated Concentration (μM) (H2030 cells, 0.3 μM): C (Percent Degradation: C ≤ 35); Percent Degradation at Indicated Concentration (μM) (H2030 cells, 1 μM): C (Percent Degradation: C ≤ 35); Percent Degradation at Indicated Concentration (μM) (H2030 cells, 3 μM): C (Percent Degradation: C ≤ 35) |
| CN(CCOCCOc1ccc2c(c1)C(=O)N(C1CCC(=O)NC1=O)C2=O)C(=O)CCNc1nc(N2CCN(C(N)=O)CC2)c2cc(Cl)c(-c3cc(O)cc4ccccc34)c(F)c2n1 (centres unmarked) [compound 27, 4-(6-chloro-2-((3-((2-(2-((2-(2,6-dioxopiperidin-3-yl)-1,3-dioxoisoindolin-5-yl)oxy)ethoxy)ethyl)(methyl)amino)-3-oxopropyl)amino)-8-fluoro-7-(3-hydroxynaphthalen-1-yl)quinazolin-4-yl)piperazine-1-carboxamide] | – | – | – | – | Percent Degradation at Indicated Concentration (μM) (H2030, 0.3 μM): C (Percent Degradation: C ≤ 35); Percent Degradation at Indicated Concentration (μM) (H2030, 1 μM): C (Percent Degradation: C ≤ 35); Percent Degradation at Indicated Concentration (μM) (H2030, 3 μM): C (Percent Degradation: C ≤ 35); Dmax: ≤ 35% |
| CCC(=O)N1CCN(c2nc(NCCC(=O)N(C)CCOCCNc3cccc4c3C(=O)N(C3CCC(=O)NC3=O)C4=O)nc3c(F)c(-c4cc(O)cc5ccccc45)c(Cl)cc23)CC1 (centres unmarked) [compound 42, 3-((6-chloro-8-fluoro-7-(3-hydroxynaphthalen-1-yl)-4-(4-propionylpiperazin-1-yl)quinazolin-2-yl)amino)-N-(2-(2-((2-(2,6-dioxopiperidin-3-yl)-1,3-dioxoisoindolin-4-yl)amino)ethoxy)ethyl)-N-methylpropanamide] | C (C ≤ 35) | C (C ≤ 35) | ≤ 35% | C (C ≤ 35) | – |
| CN(CCOCCOCCOc1ccc2c(c1)C(=O)N(C1CCC(=O)NC1=O)C2=O)C(=O)CCNc1nc(N2CCN(C(=O)C(O)O)CC2)c2cc(Cl)c(-c3c(O)cccc3F)c(F)c2n1 [compound 151, 3-(((S)-6-chloro-4-(4-(2,2-dihydroxyacetyl)piperazin-1-yl)-8-fluoro-7-(2-fluoro-6-hydroxyphenyl)quinazolin-2-yl)amino)-N-(2-(2-(2-((2-(2,6-dioxopiperidin-3-yl)-1,3-dioxoisoindolin-5-yl)oxy)ethoxy)ethoxy)ethyl)-N-methylpropanamide] | – | – | – | – | Percent Degradation at Indicated Concentration (μM) (H2030 cells, 3 μM): C (Percent Degradation: C ≤ 35) |
| C=CC(=O)N1CCN(c2nc(NCCC(=O)N(C)CCOCCOCCNc3cccc4c3C(=O)N(C3CCC(=O)NC3=O)C4=O)nc3c(F)c(-c4c(O)cccc4F)c(Cl)cc23)CC1 [compound 111, 3-(((S)-4-(4-acryloylpiperazin-1-yl)-6-chloro-8-fluoro-7-(2-fluoro-6-hydroxyphenyl)quinazolin-2-yl)amino)-N-(2-(2-(2-((2-(2,6-dioxopiperidin-3-yl)-1,3-dioxoisoindolin-4-yl)amino)ethoxy)ethoxy)ethyl)-N-methylpropanamide] | – | – | – | – | Percent Degradation at Indicated Concentration (μM) (H2030, 0.3 μM): C (Percent Degradation: C ≤ 35); Percent Degradation at Indicated Concentration (μM) (H2030, 1 μM): C (Percent Degradation: C ≤ 35); Percent Degradation at Indicated Concentration (μM) (H2030, 3 μM): C (Percent Degradation: C ≤ 35); Dmax: ≤ 35% |
| CCC(=O)N1CCN(c2nc(NCCC(=O)N(C)CCOCCOc3ccc4c(c3)CN(C3CCC(=O)NC3=O)C4=O)nc3c(F)c(-c4cc(O)cc5ccccc45)c(Cl)cc23)CC1 (centres unmarked) [compound 51, 3-((6-chloro-8-fluoro-7-(3-hydroxynaphthalen-1-yl)-4-(4-propionylpiperazin-1-yl)quinazolin-2-yl)amino)-N-(2-(2-((2-(2,6-dioxopiperidin-3-yl)-1-oxoisoindolin-5-yl)oxy)ethoxy)ethyl)-N-methylpropanamide] | C (C ≤ 35) | C (C ≤ 35) | ≤ 35% | C (C ≤ 35) | – |
| C=CC(=O)N1CCN(c2nc(NCCC(=O)N(C)CCOCCOCCOCCNc3cccc4c3C(=O)N(C3CCC(=O)NC3=O)C4=O)nc3c(F)c(-c4cc(O)cc5ccccc45)c(Cl)cc23)CC1 (centres unmarked) [compound 58, 3-((4-(4-acryloylpiperazin-1-yl)-6-chloro-8-fluoro-7-(3-hydroxynaphthalen-1-yl)quinazolin-2-yl)amino)-N-(2-(2-(2-(2-((2-(2,6-dioxopiperidin-3-yl)-1,3-dioxoisoindolin-4-yl)amino)ethoxy)ethoxy)ethoxy)ethyl)-N-methylpropanamide] | C (C ≤ 35) | C (C ≤ 35) | ≤ 35% | C (C ≤ 35) | – |
| C=CC(=O)N1CCN(c2nc(NCCC(=O)N(C)CCOCCOCC(=O)N[C@H](C(=O)N3C[C@H](O)C[C@H]3C(=O)N[C@@H](C)c3ccc(-c4scnc4C)cc3)C(C)(C)C)nc3c(F)c(-c4cc(O)cc5ccccc45)c(Cl)cc23)CC1 [compound 192, (2S,4R)-1-((2S)-15-((4-(4-acryloylpiperazin-1-yl)-6-chloro-8-fluoro-7-(3-hydroxynaphthalen-1-yl)quinazolin-2-yl)amino)-2-(tert-butyl)-12-methyl-4,13-dioxo-6,9-dioxa-3,12-diazapentadecanoyl)-4-hydroxy-N-((S)-1-(4-(4-methylthiazol-5-yl)phenyl)ethyl)pyrrolidine-2-carboxamide] | C (C ≤ 35) | C (C ≤ 35) | ≤ 35% | – | Percent Degradation at Indicated Concentration (μM): 0.1 (H2030 cells): C (C ≤ 35) |
